Assay results taken from US7763656B2, “Use of Acetylamino benzoic acid compounds for nonsense suppression and the treatment of disease” (PTC Therapeutics, Inc., priority 2002, dated 2010).

Tests used:
[1] = tested on: luciferase reporter construct containing a UGA premature termination codon stably transfected in 293T Human Embryonic Kidney cells; assay: cell-based luciferase reporter assay (UGA premature termination codon); conditions: for Activity: ranking combining potency (minimum concentration to produce protein) and efficacy (maximum protein produced), 293T cells, UGA luciferase reporter, gentamicin internal standard
Protocol: Melting points in Table 1 were obtained on an Electrothermal MeltTemp apparatus and are uncorrected. Activity measurements in Table 1 were performed in a cell-based luciferase reporter assay (as described in Section 4.2) comprising a luciferase reporter construct containing a UGA premature termination codon that was stably transfected in 293T Human Embryonic Kidney cells. Gentamicin, a small molecule known to allow readthrough of premature termination codons, was used as an internal standard. Activity measurements are based on the qualitative relation between the minimum concentration of compound required to produce a given protein in a cell (potency) and the maximum amount of protein produced by the cell (efficacy). Potency and efficacy activities are ranked as either extremely high, very high or significant. The combination of these activities is used to determine the activity ranking.
(§1) Two assays were developed for use in high throughput screens to identify small molecules that promote nonsense suppression. Each assay utilized luciferase because it is a functional reporter gene assay (light is only produced if the protein is functional) and it is extremely sensitive (Light intensity is proportional to luciferase concentration in the nM range). The first assay is a cell-based luciferase reporter assay and the second is a biochemical assay consisting of rabbit reticulocyte lysate and a nonsense-containing luciferase reporter mRNA. In the cell-based assay, a luciferase reporter construct containing a UGA premature termination codon was stably transfected in 293T Human Embryonic Kidney cells. In the biochemical assay, mRNA containing a UGA premature termination codon was used as a reporter in an in vitro translation reaction using rabbit reticulocyte lysate supplemented with tRNA, hemin, creatine kinase, amino acids, KOAc, Mg(OAc)2, and creatine phosphate. […] Synthetic mRNA was prepared in vitro using the T7 promoter and the MegaScript in vitro transcription kit (Ambion).
To determine whether compounds also function in vivo, a stable cell line harboring the UGA nonsense-containing luciferase gene was treated with selected compounds. Cells were grown in standard medium supplemented with 1% penicillin-streptomycin (P/S) and 10% fetal bovine serum (FBS) to 70% confluency and split 1:1 the day before treatment. On the following day, cells were trypsinized and 40,000 cells were added to each well of a 96-well tissue culture dish. Serial dilutions of each compound were prepared to generate a six-point dose response curve spanning 2 logs (30 μM to 0.3 μM). The final concentration of the DMSO solvent remained constant at 1% in each well. Cells treated with 1% DMSO served as the background standard, and cells treated with gentamicin served as a positive control.

[2] = tested on: nonsense-containing luciferase reporter mRNA (UGA premature termination codon) in rabbit reticulocyte lysate; assay: biochemical luciferase nonsense suppression assay (in vitro translation); conditions: internal standard
Description: as §1

[3] = tested on: tripeptidyl-peptidase 1 (TPP-I) in patient-derived LINCL cell line; conditions: patient-derived cell line compound heterozygous for Arg208Stop and another nonsense mutation; maximal; cited from earlier work
[4] = tested on: dystrophin premature stop codon in mdx mice; conditions: cited from earlier work
[5] = tested on: 28S rRNA; assay: chemical foot-printing of ribosomes prepared from HeLa cells (DMS, kethoxal); format: binding; conditions: 100 μM, DMS and kethoxal
Protocol: Ribosomes prepared from HeLa cells were incubated with the small molecules (at a concentration of 100 μM), followed by treatment with chemical modifying agents (dimethyl sulfate [DMS] and kethoxal [KE]). Following chemical modification, rRNA was phenol-chloroform extracted, ethanol precipitated, analyzed in primer extension reactions using end-labeled oligonucleotides hybridizing to different regions of the three rRNAs and resolved on 6% polyacrylamide gels. The probes used for primer extension cover the entire 18S (7 oligonucleotide primers), 28S (24 oligonucleotide primers), and 5S (one primer) rRNAs. Controls in these experiments include DMSO (a control for changes in rRNA accessibility induced by DMSO), paromomycin (a marker for 18S rRNA binding), and anisomycin (a marker for 28S rRNA binding).

[6] = tested on: dystrophin in mouse primary skeletal muscle cultures derived from mdx mice; assay: dystrophin immunostaining in primary skeletal muscle cultures from mdx mice; format: cell-based; conditions: 20 μM, cells cultured for 10 days
Protocol: Mouse primary skeletal muscle cultures derived from 1-day old mdx mice were prepared as described previously (Barton-Davis et al., 1999, J Clin Invest. 104(4):375-381). Cells were cultured for 10 days in the presence of 3-[2-(4-Isopropyl-3-methyl-phenoxy)-acetylamino]-benzoic acid, sodium salt (20 μM). Culture medium was replaced every four days and the presence of dystrophin in myoblast cultures was detected by immunostaining as described previously (Barton-Davis et al., 1999, J Clin Invest. 104(4):375-381). A primary monoclonal antibody to the C-terminus of the dystrophin protein (F19A12) was used undiluted and rhodamine conjugated anti-mouse IgG was used as the secondary antibody. The F19A12 antibody will detect the full-length protein produced by suppression of the nonsense codon. Staining was viewed using a Leica DMR micropscope, digital camera, and associated imaging software at the University of Pennsylvania.

[7] = tested on: CFTR in a bronchial epithelial cell line harboring a nonsense codon at amino acid 1282 (W1282X); assay: CFTR function as cAMP-activated chloride channel, SPQ assay; format: cell-based; conditions: compound, cAMP stimulation
Protocol: To address the effects of the nonsense-suppressing compounds on mRNAs altered in specific inherited diseases, a bronchial epithelial cell line harboring a nonsense codon at amino acid 1282 (W1282X) was treated with 3-[2-(4-Isopropyl-3-methyl-phenoxy)-acetylamino]-benzoic acid, sodium salt (20RM) and CFTR function was monitored as a cAMP-activated chloride channel using the SPQ assay (Yang et al., 1993, Hum Mol Genet. 2(8):1253-1261 and Howard et al., 1996, Nat Med. 2(4):467-469). […] No increase in fluorescence was observed when cells were not treated with compound or if the cells were not stimulated with cAMP.

melting point [°C]	Compound	Activity [1]	further results
198 to 201	COc1ccc(OC2CCN(c3cccc(C(=O)O)c3)C2=O)cc1 (stereo not shown) [Compound 82, 3-[3-(4-Methoxy-phenoxy)-2-oxo-pyrrolidin-1-yl]-benzoic acid]	0	–
194 to 196	Cc1cc(C)nc(SCc2ccc(OCC(=O)Nc3cccc(C(=O)O)c3)cc2)n1 [Compound 74, 3-{2-[4-(4,6-Dimethyl-pyrimidin-2-ylsulfanylmethyl)-phenoxy]-acetylamino}-benzoic acid]	0	–
238 to 241	CC(C)(C)c1ccc(OC2CCN(c3cccc(C(=O)O)c3)C2=O)cc1 (stereo not shown) [Compound 88, 3-[3-(4-tert-Butyl-phenoxy)-2-oxo-pyrrolidin-1-yl]-benzoic acid]	0	–

The next lines start with the compound.

Compound	melting point [°C]	Activity [1]	further results
O=C(COc1ccc(Cc2nnc(-c3ccccc3)o2)cc1)Nc1cccc(C(=O)O)c1 [Compound 80, 3-{2-[4-(5-Phenyl-[1,3,4]oxadiazol-2-ylmethyl)-phenoxy]-acetylamino}-benzoic acid]	207 to 210	0	–
O=C(COc1ccc(COCCCCN2C(=O)c3ccccc3C2=O)cc1)Nc1cccc(C(=O)O)c1 [Compound 73, 3-(2-{4-[4-(1,3-Dioxo-1,3-dihydro-isoindol-2-yl)-butoxymethyl]-phenoxy}-acetylamino)-benzoic acid]	95 to 100	0	–
gentamicin	–	–	luciferase activity [2]: increased luciferase activity; luciferase activity ([1]; cell-based assay, internal standard): increased luciferase activity; TPP-I restored [3]: approximately 7 % of normal levels of TPP-I
N#CCc1ccc(OCC(=O)Nc2cccc(C(=O)O)c2)cc1 [Compound 77, 3-[2-(4-Cyanomethyl-phenoxy)-acetylamino]-benzoic acid]	245 to 247	0	–
gentamicin sulfate	–	–	suppression of translational termination at premature stop codon (dystrophin) [4]: full length dystrophin
Cc1cc(OCC(=O)Nc2cccc(C(=O)[O-])c2)ccc1C(C)C.[Na+] [Compound 46, 3-[2-(4-Isopropyl-3-methyl-phenoxy)-acetylamino]-benzoic acid, Sodium salt]	188 to 189	–	accessibility of chemical modifying agents to rRNA nucleotides (foot-printing) [5]: alters the accessibility of the chemical modifying agents to specific nucleotides in the 28S rRNA; full-length dystrophin expression (immunostaining) [6]: EXPRESS FULL-LENGTH […]; CFTR function (SPQ fluorescence, chloride channel activity) [7]: increase chloride channel activity
O=C(O)c1cccc(N2CCC(Oc3ccc([N+](=O)[O-])cc3)C2=O)c1 (stereo not shown) [Compound 81, 3-[3-(4-Nitro-phenoxy)-2-oxo-pyrrolidin-1-yl]-benzoic acid]	178 to 180	0	–
